Data on 6 molecules can be found in ChEMBL document CHEMBL5233229, “Recent advances in the development of ubiquitin-specific-processing protease 7 (USP7) inhibitors” (Eur J Med Chem, 2020).

The target in data set [1] is Ubiquitin carboxyl-terminal hydrolase 7 (Homo sapiens, UniProt Q93009). Kind of data set: Inhibition of human his tagged USP7 (208 to 560 residues) catalytic domain expressed in insect sf9 cells using monoubiquitinated ubiquitin-rhodamine as substrate incubated for 1 hrs by fluorescence based assay.
Sequence of Ubiquitin carboxyl-terminal hydrolase 7 (Q93009 whole entry, the tested form may be a part): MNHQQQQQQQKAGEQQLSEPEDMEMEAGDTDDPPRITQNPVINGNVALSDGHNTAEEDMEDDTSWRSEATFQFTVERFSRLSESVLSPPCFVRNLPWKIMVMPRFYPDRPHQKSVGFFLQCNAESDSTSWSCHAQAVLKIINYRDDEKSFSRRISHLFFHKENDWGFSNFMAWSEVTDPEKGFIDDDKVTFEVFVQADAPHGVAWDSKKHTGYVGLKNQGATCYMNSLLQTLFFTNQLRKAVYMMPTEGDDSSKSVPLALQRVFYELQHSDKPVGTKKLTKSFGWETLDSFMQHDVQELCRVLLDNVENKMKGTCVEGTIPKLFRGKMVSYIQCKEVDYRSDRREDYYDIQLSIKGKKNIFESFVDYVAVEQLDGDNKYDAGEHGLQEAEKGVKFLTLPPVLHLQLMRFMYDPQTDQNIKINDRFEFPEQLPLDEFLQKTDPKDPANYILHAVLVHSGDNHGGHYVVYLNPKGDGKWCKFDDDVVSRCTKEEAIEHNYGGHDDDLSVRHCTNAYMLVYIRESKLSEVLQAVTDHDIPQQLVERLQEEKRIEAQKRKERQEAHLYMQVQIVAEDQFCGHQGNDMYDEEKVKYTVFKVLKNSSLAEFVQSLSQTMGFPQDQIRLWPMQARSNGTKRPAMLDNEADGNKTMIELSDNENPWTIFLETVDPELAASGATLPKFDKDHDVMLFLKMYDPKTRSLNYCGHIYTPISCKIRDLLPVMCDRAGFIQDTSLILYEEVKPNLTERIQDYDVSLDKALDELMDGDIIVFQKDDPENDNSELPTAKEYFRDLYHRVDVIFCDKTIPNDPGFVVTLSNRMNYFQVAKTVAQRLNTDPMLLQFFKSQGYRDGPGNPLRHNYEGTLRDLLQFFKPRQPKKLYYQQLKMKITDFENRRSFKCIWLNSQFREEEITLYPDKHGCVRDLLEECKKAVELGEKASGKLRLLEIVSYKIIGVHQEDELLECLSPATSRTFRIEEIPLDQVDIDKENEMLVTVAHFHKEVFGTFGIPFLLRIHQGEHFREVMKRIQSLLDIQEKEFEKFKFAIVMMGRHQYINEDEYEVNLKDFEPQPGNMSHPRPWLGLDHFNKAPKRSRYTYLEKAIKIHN
The test system of data set [2] is MM1.S. The data set is described as follows: Anticancer activity against human MM1.S cells assessed as cell growth inhibition incubated for 120 hrs by CellTiter-Glo assay. It is filed as functional, cell-based.
For data set [3], the target named is Ubiquitin carboxyl-terminal hydrolase 24 (Homo sapiens, UniProt Q9UPU5). Kind of data set: Inhibition of USP24 (unknown origin).
Sequence of Ubiquitin carboxyl-terminal hydrolase 24 (Q9UPU5 whole entry): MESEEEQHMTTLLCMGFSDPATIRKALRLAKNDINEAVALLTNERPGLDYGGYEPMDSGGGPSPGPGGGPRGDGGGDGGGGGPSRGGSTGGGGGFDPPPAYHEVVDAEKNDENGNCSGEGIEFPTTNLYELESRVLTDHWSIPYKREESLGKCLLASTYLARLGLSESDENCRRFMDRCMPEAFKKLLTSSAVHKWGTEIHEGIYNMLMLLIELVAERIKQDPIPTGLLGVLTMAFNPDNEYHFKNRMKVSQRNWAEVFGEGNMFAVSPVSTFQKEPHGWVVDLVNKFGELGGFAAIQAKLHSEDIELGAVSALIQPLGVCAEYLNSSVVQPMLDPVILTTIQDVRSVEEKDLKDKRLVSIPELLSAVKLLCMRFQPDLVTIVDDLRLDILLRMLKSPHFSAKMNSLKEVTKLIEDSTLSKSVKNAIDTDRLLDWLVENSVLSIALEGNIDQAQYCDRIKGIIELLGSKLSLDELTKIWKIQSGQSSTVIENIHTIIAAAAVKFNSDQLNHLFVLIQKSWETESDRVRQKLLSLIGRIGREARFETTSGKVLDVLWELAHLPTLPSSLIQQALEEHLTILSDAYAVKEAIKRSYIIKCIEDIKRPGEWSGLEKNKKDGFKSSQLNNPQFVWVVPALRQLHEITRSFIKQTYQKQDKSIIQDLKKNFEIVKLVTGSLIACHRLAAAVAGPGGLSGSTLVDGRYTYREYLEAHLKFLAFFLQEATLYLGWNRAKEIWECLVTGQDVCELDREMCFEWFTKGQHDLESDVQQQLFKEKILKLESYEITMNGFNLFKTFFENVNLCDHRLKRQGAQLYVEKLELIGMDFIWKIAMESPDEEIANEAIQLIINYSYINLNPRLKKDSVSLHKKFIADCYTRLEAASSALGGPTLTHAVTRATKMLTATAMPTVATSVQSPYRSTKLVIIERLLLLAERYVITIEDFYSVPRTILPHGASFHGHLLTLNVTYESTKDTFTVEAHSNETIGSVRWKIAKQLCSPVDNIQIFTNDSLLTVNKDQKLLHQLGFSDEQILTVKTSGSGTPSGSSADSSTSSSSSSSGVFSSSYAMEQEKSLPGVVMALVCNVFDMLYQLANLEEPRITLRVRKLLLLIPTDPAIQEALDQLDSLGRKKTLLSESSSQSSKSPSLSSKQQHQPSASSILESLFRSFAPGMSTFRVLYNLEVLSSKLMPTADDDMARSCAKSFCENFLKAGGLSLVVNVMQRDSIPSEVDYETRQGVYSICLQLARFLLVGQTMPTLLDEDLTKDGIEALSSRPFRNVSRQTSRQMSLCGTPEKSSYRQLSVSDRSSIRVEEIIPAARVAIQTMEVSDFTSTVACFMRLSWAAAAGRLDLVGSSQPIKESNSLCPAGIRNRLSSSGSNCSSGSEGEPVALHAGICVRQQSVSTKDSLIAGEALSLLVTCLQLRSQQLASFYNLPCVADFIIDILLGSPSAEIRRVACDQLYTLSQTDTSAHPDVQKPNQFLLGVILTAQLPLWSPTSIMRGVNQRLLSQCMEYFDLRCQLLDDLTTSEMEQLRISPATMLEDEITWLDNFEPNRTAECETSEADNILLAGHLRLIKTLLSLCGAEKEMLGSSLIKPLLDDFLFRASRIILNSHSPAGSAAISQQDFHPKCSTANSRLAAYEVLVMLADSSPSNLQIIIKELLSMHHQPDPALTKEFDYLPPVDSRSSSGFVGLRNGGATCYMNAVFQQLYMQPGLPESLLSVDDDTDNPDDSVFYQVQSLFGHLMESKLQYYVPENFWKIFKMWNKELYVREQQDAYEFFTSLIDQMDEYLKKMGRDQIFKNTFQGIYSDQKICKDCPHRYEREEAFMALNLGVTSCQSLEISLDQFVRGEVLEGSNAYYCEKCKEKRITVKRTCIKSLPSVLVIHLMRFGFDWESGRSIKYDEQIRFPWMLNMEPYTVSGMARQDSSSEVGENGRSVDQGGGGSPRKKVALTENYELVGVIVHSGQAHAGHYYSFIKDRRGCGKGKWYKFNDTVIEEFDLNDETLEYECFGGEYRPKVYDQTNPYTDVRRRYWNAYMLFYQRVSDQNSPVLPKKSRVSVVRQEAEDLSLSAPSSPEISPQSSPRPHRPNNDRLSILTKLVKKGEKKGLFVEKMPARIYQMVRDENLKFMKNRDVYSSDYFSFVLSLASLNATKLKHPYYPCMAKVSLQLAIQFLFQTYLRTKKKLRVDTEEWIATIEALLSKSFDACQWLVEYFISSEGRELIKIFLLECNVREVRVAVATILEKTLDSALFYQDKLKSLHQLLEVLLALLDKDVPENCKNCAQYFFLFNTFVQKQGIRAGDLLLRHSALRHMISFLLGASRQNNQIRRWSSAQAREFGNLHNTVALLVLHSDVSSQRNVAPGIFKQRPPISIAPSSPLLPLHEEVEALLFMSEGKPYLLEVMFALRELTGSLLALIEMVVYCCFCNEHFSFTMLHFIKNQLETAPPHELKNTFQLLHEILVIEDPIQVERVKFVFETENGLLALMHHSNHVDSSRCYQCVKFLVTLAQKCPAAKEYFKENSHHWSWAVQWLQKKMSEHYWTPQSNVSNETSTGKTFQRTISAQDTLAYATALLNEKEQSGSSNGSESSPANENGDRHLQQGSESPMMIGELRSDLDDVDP
The target of data set [4] is Ubiquitin carboxyl-terminal hydrolase 9X (Homo sapiens, UniProt Q93008). Kind of data set: Inhibition of USP9x (unknown origin).
Data set [5] in a line: Aqueous solubility of compound. It is filed as physicochemical.
For data set [6], the target named is T1, Ubiquitin carboxyl-terminal hydrolase 5 (Homo sapiens, UniProt P45974).
T1 sequence (P45974 whole entry): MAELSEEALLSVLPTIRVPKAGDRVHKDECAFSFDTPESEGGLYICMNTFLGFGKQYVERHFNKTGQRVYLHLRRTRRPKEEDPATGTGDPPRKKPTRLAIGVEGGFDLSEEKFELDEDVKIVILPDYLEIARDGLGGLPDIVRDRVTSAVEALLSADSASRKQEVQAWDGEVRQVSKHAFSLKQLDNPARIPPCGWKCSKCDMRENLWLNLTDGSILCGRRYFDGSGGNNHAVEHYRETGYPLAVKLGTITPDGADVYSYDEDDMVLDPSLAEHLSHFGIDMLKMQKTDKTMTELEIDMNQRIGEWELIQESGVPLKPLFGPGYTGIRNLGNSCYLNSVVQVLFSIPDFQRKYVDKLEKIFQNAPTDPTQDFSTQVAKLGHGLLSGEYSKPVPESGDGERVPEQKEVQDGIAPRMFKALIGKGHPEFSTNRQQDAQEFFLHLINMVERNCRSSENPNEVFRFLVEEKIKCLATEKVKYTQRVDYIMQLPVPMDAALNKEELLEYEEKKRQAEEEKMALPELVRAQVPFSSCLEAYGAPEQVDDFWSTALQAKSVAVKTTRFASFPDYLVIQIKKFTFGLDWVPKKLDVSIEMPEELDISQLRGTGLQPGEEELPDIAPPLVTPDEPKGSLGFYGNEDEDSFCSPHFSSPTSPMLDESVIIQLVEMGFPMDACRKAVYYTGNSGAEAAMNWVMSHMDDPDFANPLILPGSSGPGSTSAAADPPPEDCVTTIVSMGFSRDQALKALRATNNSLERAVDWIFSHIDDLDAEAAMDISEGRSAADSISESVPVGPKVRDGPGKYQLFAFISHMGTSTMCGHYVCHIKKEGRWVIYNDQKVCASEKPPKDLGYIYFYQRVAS
The data set is described as follows: Inhibition of human USP5 using Ub-PA as substrate assessed as deubiquitination level incubated for 1 hr by SDS-PAGE assay.

The target in data set [7] is T2, Ubiquitin carboxyl-terminal hydrolase 14 (Homo sapiens, UniProt P54578). The data set is described as follows: Inhibition of human USP14 using Ub-PA as substrate assessed as deubiquitination level incubated for 1 hr by SDS-PAGE assay.
T2 sequence (P54578 whole entry): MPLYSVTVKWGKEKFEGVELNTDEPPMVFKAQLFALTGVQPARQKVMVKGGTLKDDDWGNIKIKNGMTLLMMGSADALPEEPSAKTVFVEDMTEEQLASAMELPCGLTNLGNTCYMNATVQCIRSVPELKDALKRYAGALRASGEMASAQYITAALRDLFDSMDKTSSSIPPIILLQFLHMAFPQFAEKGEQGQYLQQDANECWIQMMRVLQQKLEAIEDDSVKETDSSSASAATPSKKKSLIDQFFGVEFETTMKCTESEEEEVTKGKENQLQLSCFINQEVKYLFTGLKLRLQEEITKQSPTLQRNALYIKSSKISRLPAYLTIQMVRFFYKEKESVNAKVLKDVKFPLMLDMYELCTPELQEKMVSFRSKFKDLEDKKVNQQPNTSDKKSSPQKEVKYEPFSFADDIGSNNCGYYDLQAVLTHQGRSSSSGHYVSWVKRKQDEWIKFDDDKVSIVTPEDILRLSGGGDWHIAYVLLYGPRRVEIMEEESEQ
Data set [8] concerns the target T3, Ubiquitin carboxyl-terminal hydrolase 2 (Homo sapiens, UniProt O75604).
T3 sequence (O75604 whole entry): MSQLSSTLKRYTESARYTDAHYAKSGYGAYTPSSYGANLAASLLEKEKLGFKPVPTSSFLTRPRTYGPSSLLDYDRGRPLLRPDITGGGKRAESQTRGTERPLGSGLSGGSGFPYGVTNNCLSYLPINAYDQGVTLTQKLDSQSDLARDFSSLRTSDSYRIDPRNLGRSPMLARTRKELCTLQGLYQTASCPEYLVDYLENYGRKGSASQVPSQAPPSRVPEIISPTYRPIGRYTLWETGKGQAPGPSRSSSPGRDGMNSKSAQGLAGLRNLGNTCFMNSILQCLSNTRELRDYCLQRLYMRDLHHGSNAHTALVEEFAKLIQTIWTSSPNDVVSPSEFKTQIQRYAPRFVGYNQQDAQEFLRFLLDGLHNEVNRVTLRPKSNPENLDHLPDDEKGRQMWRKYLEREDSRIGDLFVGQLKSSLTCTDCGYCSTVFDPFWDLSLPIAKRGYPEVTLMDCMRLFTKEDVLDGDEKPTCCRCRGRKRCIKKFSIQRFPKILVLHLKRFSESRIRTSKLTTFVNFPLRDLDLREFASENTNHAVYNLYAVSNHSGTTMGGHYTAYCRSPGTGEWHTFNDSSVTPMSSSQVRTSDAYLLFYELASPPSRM
Kind of data set: Inhibition of human USP2 using Di-Ub IQF as substrate incubated for 15 mins by K63-2 assay.

The test system of data set [9] is HCT-116. The data set is described as follows: Anticancer activity against human HCT-116 cells assessed as cell growth inhibition incubated for 72 hrs by CellTiter Glo assay. The settings on record: HCT-116, 72 h. It is filed as functional, cell-based.
The target in data set [10] is T4, Ubiquitin carboxyl-terminal hydrolase 8 (Homo sapiens, UniProt P40818).
T4 sequence (P40818 whole entry): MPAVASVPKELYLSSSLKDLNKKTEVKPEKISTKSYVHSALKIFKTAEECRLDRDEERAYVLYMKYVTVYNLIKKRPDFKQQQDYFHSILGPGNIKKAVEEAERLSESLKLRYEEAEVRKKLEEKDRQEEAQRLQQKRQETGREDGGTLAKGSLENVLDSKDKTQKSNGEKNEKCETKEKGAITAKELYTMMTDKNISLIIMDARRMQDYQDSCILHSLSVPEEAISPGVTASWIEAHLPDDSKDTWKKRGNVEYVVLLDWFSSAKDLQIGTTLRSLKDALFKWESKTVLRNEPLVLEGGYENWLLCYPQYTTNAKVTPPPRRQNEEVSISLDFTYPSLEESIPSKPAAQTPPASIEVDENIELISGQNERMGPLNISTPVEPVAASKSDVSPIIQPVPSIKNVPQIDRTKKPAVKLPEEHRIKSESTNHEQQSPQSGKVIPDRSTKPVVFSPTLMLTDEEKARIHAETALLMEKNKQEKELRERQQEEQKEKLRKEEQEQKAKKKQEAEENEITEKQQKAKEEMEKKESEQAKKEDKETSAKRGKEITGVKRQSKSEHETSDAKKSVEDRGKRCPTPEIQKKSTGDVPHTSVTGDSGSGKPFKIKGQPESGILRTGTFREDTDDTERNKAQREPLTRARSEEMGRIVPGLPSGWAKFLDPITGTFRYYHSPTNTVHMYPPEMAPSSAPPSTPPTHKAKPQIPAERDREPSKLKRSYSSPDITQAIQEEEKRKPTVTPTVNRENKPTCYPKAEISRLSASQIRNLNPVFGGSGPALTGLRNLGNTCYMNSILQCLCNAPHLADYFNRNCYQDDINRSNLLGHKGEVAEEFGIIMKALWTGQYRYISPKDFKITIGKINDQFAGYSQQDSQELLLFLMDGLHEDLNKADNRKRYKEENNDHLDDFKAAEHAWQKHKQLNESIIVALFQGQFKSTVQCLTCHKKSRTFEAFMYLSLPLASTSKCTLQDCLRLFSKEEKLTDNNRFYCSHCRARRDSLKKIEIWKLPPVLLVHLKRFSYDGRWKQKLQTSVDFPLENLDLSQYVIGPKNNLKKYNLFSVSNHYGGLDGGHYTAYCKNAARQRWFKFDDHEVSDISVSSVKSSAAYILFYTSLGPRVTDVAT
The data set is described as follows: Inhibition of human USP8 using Di-Ub IQF as substrate incubated for 15 mins by K63-2 assay.

For data set [11], the target named is T5, Ubiquitin carboxyl-terminal hydrolase isozyme L5 (Homo sapiens, UniProt Q9Y5K5).
T5 sequence (Q9Y5K5 whole entry): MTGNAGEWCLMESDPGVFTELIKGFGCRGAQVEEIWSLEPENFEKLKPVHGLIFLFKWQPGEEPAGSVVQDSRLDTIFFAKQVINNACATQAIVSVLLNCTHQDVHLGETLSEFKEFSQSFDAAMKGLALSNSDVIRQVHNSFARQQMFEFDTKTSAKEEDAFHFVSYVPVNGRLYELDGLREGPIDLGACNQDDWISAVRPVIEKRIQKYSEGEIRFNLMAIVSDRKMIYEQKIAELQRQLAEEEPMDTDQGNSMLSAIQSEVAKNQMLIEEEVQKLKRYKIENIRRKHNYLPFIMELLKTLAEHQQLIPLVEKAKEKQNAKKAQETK
The data set is described as follows: Inhibition of human his tagged UCHL5 assessed as dissociation constant by SPR analysis.

Data set [12] has as its target T2, Ubiquitin carboxyl-terminal hydrolase 14. The data set is described as follows: Inhibition of human his tagged USP14 assessed as dissociation constant by SPR analysis. In general terms: In SPR one partner is held on a chip, and binding of the other changes the refractive index at the surface.
The target is the same in data set [13]. Kind of data set: Inhibition of human his tagged USP14 by SPR analysis.

Converted amounts (≈) assume the structure as drawn.

As usually defined, the IC50 is the concentration needed to halve the response being measured. Consider `O=C(C[C@@H](C(F)F)n1ccc(F)n1)N1CCC(O)(Cn2cnc3c(cnn3-c3ccc(F)cc3)c2=O)CC1`, for which the half-maximal inhibitory concentration (IC50) in data set [1] turned out to be 0.069 µM; in [2] it was 0.033 µM.
For the molecule `CCCC(NC(=O)/C(C#N)=C/c1nc(Cl)ccc1Cl)c1ccc(OCCN2CCOCC2)cc1` (stereo not drawn), in [3], 2.5 µM corresponded to half-maximal inhibition (IC50).
Broadly, the solubility is the dissolved amount per volume that the medium holds. A lower solubility goes with a poorly soluble substance. With `CCC[C@H](NC(=O)/C(C#N)=C/c1cccc(Br)n1)c1ccccc1`, in data set [4], the IC50 turned out to be 2.5 µM. The molecule further yielded a solubility in data set [5] of 2.3 µM (≈ 0.884 µg/mL).
Turning to `Cc1cc(C(=O)CN2CCCCC2)c(C)n1-c1ccc(F)cc1`, the IC50 worked out at 29.1 µM in data set [6] and 0.68 µM in [7].
One may read the EC50 as the concentration that produces a half-maximal response. For `Cc1ccc(S(=O)(=O)Nc2cc(C(F)(F)F)ccc2C(=O)Nc2nc(-c3ccccc3)cs2)cc1`, the IC50 was 1.1 µM in [8] and 0.95 µM in data set [10]. Moreover, the EC50 in data set [9] came to 3.6 µM.
What is called Kd is the constant that tells how readily two partners part at equilibrium. As to `C=CC(=O)N1CC/C(=C\c2ccc(F)c([N+](=O)[O-])c2)C(=O)/C(=C/c2ccc(F)c([N+](=O)[O-])c2)C1`, the dissociation constant (Kd) in data set [11] is 1.5 µM; in data set [12], 14 µM. For the same molecule, the IC5 in data set [13] was 10 µM.
